Tested on: IL-6
Assay: IL-6 mRNA level by RT-PCR in LPS-induced mouse splenocytes
Assay type: cell-based
Conditions: LPS 2 μg/mL, peptide at 5 μM and 50 μM, 24 hours, compared to group not treated with the peptide
Protocol: Inflammation was induced in mouse splenocytes, and the expression levels of TNFα, and IL-6 genes, which is the inflammatory cytokines were confirmed. In order to induce inflammation, the cells were treated with LPS, an inflammation-inducing antigen, and since TNFα corresponds to a signaling protein associated with inflammation, and IL-6 corresponds to a cytokine that promotes inflammation, the degree of inflammation can be confirmed by measuring the expression levels of TNFα and IL-6 genes.
Mouse splenocytes were dispensed into a 24-well plate at a concentration of 1×10^7 cells/well and cultured until the next day. The medium was replaced with serum-free medium, and after 3 hours, the cells were treated with LPS and the peptide of the present invention and then cultured again for another 24 hours. In order to induce inflammation, the cells were treated with LPS at 2 μg/mL, and the peptide at […] and 50 μM, respectively. […] After quantifying the amount of isolated RNA, cDNA was synthesized using a cDNA synthesis kit (Intron, Korea), PCR was performed using a PCR premix (Intron, Korea) and primers for TNFα, and IL-6. […]

TWNS [peptide of the present invention]
mRNA expression level of IL-6: decreased
